Measured values from paper PMC4099174 (Journal of Medicinal Chemistry, 2014).
Read-outs that look alike come from different tables or passages of the source.

Tests used:
ChromlogD assay = type: physicochemical; conditions: pH 7.4
Description: page 13: PHYSICOCHEMICAL PROPERTIES ASSAYS […] phosphate buffered saline, equilibrated for 1 hour at room temperature, filtered through Millipore […] filter plates (MSSL BPC). The filtrate is quantified by suitably calibrated flow injection ChemicLuminescent Nitrogen Detection.1 The standard error of the CLND solubility […] DMSO stock solution. GSK inchouse Artificial Membrane Permeability Assay: […] in 1% cholesterol decane solution was applied to a […], 0.4um, PCF culture plate. 250 μL and 100 μL 50 mM phosphate buffer pH 7.4 with 0.5% […] applied to the […] in DMSO was added to the donor compartment. The assay was incubated at RT for 3 hours. Samples from both donor and receiver compartments were analyzed by HPLC with UV detection at 215 and 254 nm and permeability was calculated. The permeability (logPapp) measuring how fast molecules pass through the black lipid membrane is expressed in nm/s. ChromlogD assay. The Chromatographic Hydrophobicity Index (CHI)2 values were measured using reversed phase HPLC column (Luna C18 (2),Phenomenex, UK) with fast acetonitrile gradient at starting mobile phase of pH = 7.4. CHI values are derived directly from the gradient retention times by using a calibration line obtained for standard compounds. The CHI value approximates to the volume % organic concentration when the compound elutes. CHI is linearly transformed into ChromlogD by leastcsquare fitting of experimental CHI values to calculated ClogP values for over 20K research compounds using the following formula: ChromlogD = 0.0857CHIc2.00. The average error of the assay is ±3 CHI unit or ±0.25 ChromlogD. S13

[1] = test system: phosphorylated PIs (PIP, PIP3) in T. brucei cells; assay: Phospholipidomics analysis (ES-MS of lipid extracts); type: cell-based, Trypanosoma brucei; conditions: 200 nM, 12 h; negative ion mode scans 950–1300 m/z
Excerpt: We originally selected 1 to investigate its potential as an trypanocidal agent on the basis of its activity as a PI3K/mTOR inhibitor in mammalian cells and the fact that PI3K activity is essential for the bloodstream form of the T. brucei parasite.[25] In the interest of elucidating the potential mechanism of action against T. brucei cells, we performed a lipidomic analysis to discern if PI kinases are likely targets of these analogues. Lipid extracts of cells grown in the presence of the best compounds at sublethal doses (200 nM) for 12 h were analyzed by ES-MS. […] There were no significant differences in the phosphatidylcholine (PC) and sphingomylein (SM) species between the control and cells grown in the presence of the other compounds (Figure S1). […] Alternatively, as is often the case, changes in the lipid profile could be a reflection in the cells succumbing to (or adapting to) a defect in a major cellular process, such as endo- or exocytosis or cell cycle arrest.
Because these compounds are thought to target PI3K, negative ion mode scans between 950 and 1300 m/z were conducted to focus upon singly and multiply phosphorylated PIs.
Total lipids from mid log phase cells were extracted by the method of Bligh and Dyer.[30] Briefly, mid log phase cells were collected by centrifugation (800g, 10 min), washed with PBS, resuspended in 100 μL of TDB-glucose, transferred to a glass tube containing 375 μL of 1:2 (v/v) CHCl3/MeOH, and vortexed. The sample was agitated vigorously for a further 10–15 min. The sample was made biphasic by the addition of 125 μL of CHCl3 and vortexed, and then 125 μL of H2O was added. The sample was vortexed again and centrifuged at 3000g at rt for 10 min. The lower (organic) phase was transferred into a new glass vial, and the aqueous phase was re-extracted with the fresh lower phase. The resultant lower phase lipid extract was dried under a stream of nitrogen and stored at 4 °C.
Lipid extracts were dissolved in 15 μL of CHCl3/MeOH (1:2) and 15 μL of acetonitrile/isopropanol/water (6:7:2) and analyzed with a triple quadrupole mass spectrometer (Absceix 4000 QTrap) equipped with a nanoelectrospray source. […] The lipid extracts were analyzed in both positive and negative ion modes using a capillary voltage of 1.25 kV. […] Tandem mass spectra (MS/MS) were obtained with collision energies as follows: 35–45 V, PC/SM in positive ion mode, parent-ion scanning of m/z 184; 35–55 V, PI in negative ion mode, parent-ion scanning of m/z 241; 35–65 V, PE in negative ion mode, parent-ion scanning of m/z 196; 20–35 V, PS in negative ion mode, neutral loss scanning of m/z 87; and 40–90 V, for all glycerophospholipids (including PA, PG, and cardiolipin) detected by precursor scanning for m/z 153 in negative ion mode. […]

[2] = test system: bloodstream form of T. brucei; assay: Transferrin uptake (receptor-mediated endocytosis); type: cell-based, Trypanosoma brucei; conditions: concentration twice the EC50, 18 h
Excerpt: Highly efficient and rapid endocytosis is one of the most important cellular processes for this infective parasite to survive and multiply within the bloodstream of the host, and the activity of TbPI3KIII is essential for this process.[25] To gain insight on the possible target(s) of our compounds, we carried out transferrin uptake experiments to measure receptor-mediated endocytosis after drug treatment. […] Compound 16e induced a phenotype defective in endocytosis (Figure 3); however, the PIP3 molecular species identified (42:7-9) was not the same PIP3 molecular species identified in WT cells (44:9-12).
Two million trypanosomes were harvested and washed with TDB-glucose plus 1% BSA, resuspended in 250 μL in the same buffer, and incubated for 10 min at 37 °C prior to the addition of 5 μg of AlexaFluor 488-conjugated human holo-Tf (Invitrogen). Incubations were carried out for 0 (no Tf) or 3 min at 37 °C, after which cells were immediately fixed in 4 °C in 1% PFA diluted in cold PBS for at least 1 h. Parasites were finally washed twice with PBS and analyzed with a Becton Dickinson FACSCalibur flow cytometer (BD Biosciences) using BD CellQuest Pro version 4.0.2 software.

[3] = test system: Bloodstream form culture of T. b. brucei; assay: Cell cycle analysis by FACS (propidium iodide); type: cell-based, Trypanosoma brucei brucei; conditions: concentration twice the EC50, 18 h
Description: For cell cycle analysis, samples (1.5 × 10^6 cells) were collected, centrifuged (1400g at 4 °C for 5 min), and washed in trypanosome dilution buffer (TDB). The cell pellets were gently suspended in 50 μL of TDB and permeabilized by adding 1 μL of saponin (25 mg/mL) for 3 min. It was then mixed with another 450 μL of TDB. RNase and propidium iodide (PI) were added to the suspension at final concentrations of 10 and 20 μg/mL, respectively, and the samples were incubated at room temperature for 30 min and then stored at 4 °C. The DNA content of PI-stained cells and the percentage of cells in each phase of the cell cycle (10 000 cells per sample) were analyzed with a Becton Dickinson FACSCalibur flow cytometer (BD Biosciences) using BD CellQuest Pro version 4.0.2 software.
Figure S3. Cell Cycle analysis of parasites upon dosage with NVP-BEZ235 derivative.
Bloodstream form culture of T. b. brucei was subjected to different drugs and analyzed by
Fluorescencecactivated cell sorter (FACS) for DNA content stained by propidium iodide (PI).
Cell cultures were incubated during 18 h with various NVPcBEZ235 derivatives using DMSO as
a control treatment. Mean ± SD of three independent experiments are shown.

[4] = test system: Bloodstream Trypanosoma brucei brucei Lister 427; assay: Trypanosome cell growth dose–response assay (resazurin viability test); type: cell-based
[5] = Table 4, measured value (outside parentheses)
[6] = Table 2, average of two replicates, read-out: T brucei EC50

| Compound | chromatographic logD (ChromlogD assay; [5]) | phosphorylated PI (PIP) levels vs control cells [1] | transferrin uptake / endocytosis [2] | cell cycle progression [3] | EC50 ([4]; Trypanosoma brucei, read-out: EC50 against T. brucei) [µM] | chromatographic logD (ChromlogD assay) | HepG2 TC50 (HepG2 cell line) [µM] | EC50 [4, 6] [µM] |
| --- | --- | --- | --- | --- | --- | --- | --- | --- |
| COc1ccc(-n2c(=O)n(C)c3cnc4ccc(-c5ccncc5)cc4c32)cc1 [Compound 16g, 1-(4-Methoxyphenyl)-3-methyl-8-(pyridin-4-yl)-1H-imidazo[4,5-c]quinolin-2(3H)-one] | 3.03 | almost complete absence of all phosphorylated PIs | inhibited endocytosis dramatically | did not significantly alter cell cycle progression |  |  |  |  |
| CC(C)(C#N)c1ccc(Nc2c(N)cnc3ccc(-c4cnc5ccccc5c4)cc23)cc1 [Compound 20, 2-(4-((3′-Amino-[3,6′-biquinolin]-4′-yl)amino)phenyl)-2-methylpropanenitrile] |  |  |  |  | 0.767 |  |  |  |
| Cc1ccc(-n2c(=O)n(C)c3cnc4ccc(-c5ccncc5)cc4c32)cc1 [Compound 16e, 3-Methyl-8-(pyridin-4-yl)-1-(p-tolyl)-1H-imidazo[4,5-c]quinolin-2(3H)-one] | 3.5 | significant (albeit incomplete) reduction in PIP levels | inhibited endocytosis dramatically | did not significantly alter cell cycle progression |  |  |  |  |
| Cn1c(=O)n(-c2ccc(C(C)(C)C#N)cc2)c2c3cc(-c4cnc5ccccc5c4)ccc3ncc21 [Compound 1, NVP-BEZ235, reference compound] |  | almost complete absence of all phosphorylated PIs | inhibited endocytosis dramatically | did not significantly alter cell cycle progression |  | 4.75 |  |  |
| 1-Methyl-8-(pyridin-4-yl)-1H-imidazo[4,5-c]quinolin-2(3H)-one [Compound 16k] |  |  |  |  |  |  | >20 | 3.27 |
| 1-(4-((4-Methylpiperazin-1-yl)methyl)phenyl)-8-(pyridin-4-yl)-1H-imidazo[4,5-c]quinolin-2(3H)-one [Compound 16j] |  |  |  |  |  |  | >7.6 | 3.35 |
